From US8653041B2, “Antibacterial aminoglycoside analogs” (Achaogen, Inc., priority 2010, dated 2014)
Values after ≈ are worked out from the molar mass of the structure shown. Like-named read-outs stand apart in the source and are kept apart here.

Tests used:
Pseudomonas aeruginosa = test: MIC, CLSI broth microdilution, Pseudomonas aeruginosa panel; assay type: cell-based
Description: (§1) Minimum inhibitory concentrations (MIC) were determined by reference Clinical and Laboratory Standards Institute (CLSI) broth microdilution methods per M7-A7 [2006]. Quality control ranges utilizing E. coli ATCC 25922, P. aeruginosa ATCC 27853 and S. aureus ATCC 29213, and interpretive criteria for comparator agents were as published in CLSI M100-S17 [2007]. Briefly, serial two-fold dilutions of the test compounds were prepared at 2× concentration in Mueller Hinton Broth. The compound dilutions were mixed in 96-well assay plates in a 1:1 ratio with bacterial inoculum. The inoculum was prepared by suspension of a colony from an agar plate that was prepared the previous day. Bacteria were suspended in sterile saline and added to each assay plate to obtain a final concentration of 5×10^5 CFU/mL. The plates were incubated at 35 C for 20 hours in ambient air.
The MIC panel presented in Table 1 contains 27 isolates of Pseudomonas aeruginosa: strains 1-22 are clinical isolates from around the world collected between 2004-2007 which contain representative resistance mechanisms commonly found in Pseudomonas, such as the AAC(6′)-I, AAC(6′)-II, APH(3′)-IIb, ANT(2″)-I, and perm/efflux; strains 23-27 are susceptible.

Acinetobacter baumannii = test: MIC, CLSI broth microdilution, Acinetobacter baumannii panel; assay type: cell-based; settings: Acinetobacter baumannii, read-out: MIC
Description: as §1
The MIC panel presented in Table 2 contains 29 isolates of Acinetobacter baumannii: strains 1-24 are clinical isolates from around the world collected between 2004-2007 which contain representative resistance mechanisms commonly found in Acinetobacter baumannii, such as AAC(3)-I and II, AAC(6′)-I, ANT(2″)-I, APH(3′)-VI, and perm/efflux; strains 25-29 are susceptible.

NC[C@H]1O[C@H](O[C@H]2[C@H](O)[C@@H](O[C@H]3O[C@H](CO)[C@@H](O)[C@H](N)[C@H]3O)[C@H](N)C[C@@H]2N)[C@H](N)C[C@@H]1O [TOB, tobramycin]
MIC (Pseudomonas aeruginosa; Pseudomonas aeruginosa, P. aeruginosa clinical strain 1 (resistant clinical isolate), read-out: MIC): ≥ 32 µg/mL
MIC (Pseudomonas aeruginosa; Pseudomonas aeruginosa, P. aeruginosa clinical strain 2 (resistant clinical isolate), read-out: MIC): 16 to 32 µg/mL (≈ 34.2 to 68.4 µM)
MIC (Pseudomonas aeruginosa; Pseudomonas aeruginosa, P. aeruginosa clinical strain 3 (resistant clinical isolate), read-out: MIC): ≥ 32 µg/mL
MIC (Pseudomonas aeruginosa; Pseudomonas aeruginosa, P. aeruginosa clinical strain 4 (resistant clinical isolate), read-out: MIC): ≥ 32 µg/mL
MIC (Pseudomonas aeruginosa; Pseudomonas aeruginosa, P. aeruginosa clinical strain 5 (resistant clinical isolate), read-out: MIC): ≥ 32 µg/mL
MIC (Pseudomonas aeruginosa; Pseudomonas aeruginosa, P. aeruginosa clinical strain 6 (resistant clinical isolate), read-out: MIC): ≥ 32 µg/mL
MIC (Pseudomonas aeruginosa; Pseudomonas aeruginosa, P. aeruginosa clinical strain 7 (resistant clinical isolate), read-out: MIC): ≥ 32 µg/mL
MIC (Pseudomonas aeruginosa; Pseudomonas aeruginosa, P. aeruginosa clinical strain 8 (resistant clinical isolate), read-out: MIC): ≥ 32 µg/mL
MIC (Pseudomonas aeruginosa; Pseudomonas aeruginosa, P. aeruginosa clinical strain 9 (resistant clinical isolate), read-out: MIC): ≥ 32 µg/mL
MIC (Pseudomonas aeruginosa; Pseudomonas aeruginosa, P. aeruginosa clinical strain 10 (resistant clinical isolate), read-out: MIC): ≥ 32 µg/mL
MIC (Pseudomonas aeruginosa; Pseudomonas aeruginosa, P. aeruginosa clinical strain 11 (resistant clinical isolate), read-out: MIC): 8 to 16 µg/mL (≈ 17.1 to 34.2 µM)
MIC (Pseudomonas aeruginosa; Pseudomonas aeruginosa, P. aeruginosa clinical strain 12 (resistant clinical isolate), read-out: MIC): ≥ 32 µg/mL
MIC (Pseudomonas aeruginosa; Pseudomonas aeruginosa, P. aeruginosa clinical strain 13 (resistant clinical isolate), read-out: MIC): ≥ 32 µg/mL
MIC (Pseudomonas aeruginosa; Pseudomonas aeruginosa, P. aeruginosa clinical strain 14 (resistant clinical isolate), read-out: MIC): ≥ 32 µg/mL
MIC (Pseudomonas aeruginosa; Pseudomonas aeruginosa, P. aeruginosa clinical strain 15 (resistant clinical isolate), read-out: MIC): ≥ 32 µg/mL
MIC (Pseudomonas aeruginosa; Pseudomonas aeruginosa, P. aeruginosa clinical strain 16 (resistant clinical isolate), read-out: MIC): ≥ 32 µg/mL
MIC (Pseudomonas aeruginosa; Pseudomonas aeruginosa, P. aeruginosa clinical strain 17 (resistant clinical isolate), read-out: MIC): ≥ 32 µg/mL
MIC (Pseudomonas aeruginosa; Pseudomonas aeruginosa, P. aeruginosa clinical strain 18 (resistant clinical isolate), read-out: MIC): ≥ 32 µg/mL
MIC (Pseudomonas aeruginosa; Pseudomonas aeruginosa, P. aeruginosa clinical strain 19 (resistant clinical isolate), read-out: MIC): ≥ 32 µg/mL
MIC (Pseudomonas aeruginosa; Pseudomonas aeruginosa, P. aeruginosa clinical strain 20 (resistant clinical isolate), read-out: MIC): 1 to 8 µg/mL (≈ 2.14 to 17.1 µM)
MIC (Pseudomonas aeruginosa; Pseudomonas aeruginosa, P. aeruginosa clinical strain 21 (resistant clinical isolate), read-out: MIC): ≤ 1 µg/mL
MIC (Pseudomonas aeruginosa; Pseudomonas aeruginosa, P. aeruginosa clinical strain 22 (resistant clinical isolate), read-out: MIC): ≤ 1 µg/mL
MIC (Pseudomonas aeruginosa; Pseudomonas aeruginosa, P. aeruginosa strain 23 (susceptible), read-out: MIC): ≤ 1 µg/mL
MIC (Pseudomonas aeruginosa; Pseudomonas aeruginosa, P. aeruginosa strain 24 (susceptible), read-out: MIC): ≤ 1 µg/mL
MIC (Pseudomonas aeruginosa; Pseudomonas aeruginosa, P. aeruginosa strain 25 (susceptible), read-out: MIC): ≤ 1 µg/mL
MIC (Pseudomonas aeruginosa; Pseudomonas aeruginosa, P. aeruginosa strain 26 (susceptible), read-out: MIC): ≤ 1 µg/mL
MIC (Pseudomonas aeruginosa; Pseudomonas aeruginosa, P. aeruginosa strain 27 (susceptible), read-out: MIC): 1 to 8 µg/mL (≈ 2.14 to 17.1 µM)
MIC (Acinetobacter baumannii; A. baumannii clinical strain 1 (resistant clinical isolate)): ≥ 32 µg/mL
MIC (Acinetobacter baumannii; A. baumannii clinical strain 2 (resistant clinical isolate)): ≥ 32 µg/mL
MIC (Acinetobacter baumannii; A. baumannii clinical strain 3 (resistant clinical isolate)): ≥ 32 µg/mL
MIC (Acinetobacter baumannii; A. baumannii clinical strain 4 (resistant clinical isolate)): ≥ 32 µg/mL
MIC (Acinetobacter baumannii; A. baumannii clinical strain 5 (resistant clinical isolate)): ≥ 32 µg/mL
MIC (Acinetobacter baumannii; A. baumannii clinical strain 6 (resistant clinical isolate)): ≥ 32 µg/mL
MIC (Acinetobacter baumannii; A. baumannii clinical strain 7 (resistant clinical isolate)): 1 to 8 µg/mL (≈ 2.14 to 17.1 µM)
MIC (Acinetobacter baumannii; A. baumannii clinical strain 8 (resistant clinical isolate)): ≥ 32 µg/mL
MIC (Acinetobacter baumannii; A. baumannii clinical strain 9 (resistant clinical isolate)): ≥ 32 µg/mL
MIC (Acinetobacter baumannii; A. baumannii clinical strain 10 (resistant clinical isolate)): ≥ 32 µg/mL
MIC (Acinetobacter baumannii; A. baumannii clinical strain 11 (resistant clinical isolate)): ≥ 32 µg/mL
MIC (Acinetobacter baumannii; A. baumannii clinical strain 12 (resistant clinical isolate)): 16 to 32 µg/mL (≈ 34.2 to 68.4 µM)
MIC (Acinetobacter baumannii; A. baumannii clinical strain 13 (resistant clinical isolate)): ≤ 1 µg/mL
MIC (Acinetobacter baumannii; A. baumannii clinical strain 14 (resistant clinical isolate)): ≤ 1 µg/mL
MIC (Acinetobacter baumannii; A. baumannii clinical strain 15 (resistant clinical isolate)): ≤ 1 µg/mL
MIC (Acinetobacter baumannii; A. baumannii clinical strain 16 (resistant clinical isolate)): 1 to 8 µg/mL (≈ 2.14 to 17.1 µM)
MIC (Acinetobacter baumannii; A. baumannii clinical strain 17 (resistant clinical isolate)): ≤ 1 µg/mL
MIC (Acinetobacter baumannii; A. baumannii clinical strain 18 (resistant clinical isolate)): 1 to 8 µg/mL (≈ 2.14 to 17.1 µM)
MIC (Acinetobacter baumannii; A. baumannii clinical strain 19 (resistant clinical isolate)): ≤ 1 µg/mL
MIC (Acinetobacter baumannii; A. baumannii clinical strain 20 (resistant clinical isolate)): 1 to 8 µg/mL (≈ 2.14 to 17.1 µM)
MIC (Acinetobacter baumannii; A. baumannii clinical strain 21 (resistant clinical isolate)): ≥ 32 µg/mL
MIC (Acinetobacter baumannii; A. baumannii clinical strain 22 (resistant clinical isolate)): ≥ 32 µg/mL
MIC (Acinetobacter baumannii; A. baumannii clinical strain 23 (resistant clinical isolate)): ≥ 32 µg/mL
MIC (Acinetobacter baumannii; A. baumannii clinical strain 24 (resistant clinical isolate)): ≥ 32 µg/mL
MIC (Acinetobacter baumannii; A. baumannii strain 25 (susceptible)): ≤ 1 µg/mL
MIC (Acinetobacter baumannii; A. baumannii strain 26 (susceptible)): ≤ 1 µg/mL
MIC (Acinetobacter baumannii; A. baumannii strain 27 (susceptible)): ≤ 1 µg/mL
MIC (Acinetobacter baumannii; A. baumannii strain 28 (susceptible)): ≤ 1 µg/mL
MIC (Acinetobacter baumannii; A. baumannii strain 29 (susceptible)): ≤ 1 µg/mL

NC[C@@H]1O[C@H](O[C@H]2[C@@H](O)[C@H](O[C@@H]3[C@@H](O)[C@H](N)C[C@H](N)[C@H]3O[C@H]3O[C@H](CN)[C@@H](O)[C@H](O)[C@H]3N)O[C@@H]2CO)[C@H](N)[C@@H](O)[C@@H]1O [Neo B, neomycin B]
MIC (Pseudomonas aeruginosa; P. aeruginosa clinical strain 1 (resistant clinical isolate)): E (MIC's greater than or equal to 32.0 μg/mL = E)
MIC (Pseudomonas aeruginosa; P. aeruginosa clinical strain 2 (resistant clinical isolate)): D (MIC's greater than or equal to 16.0 μg/mL and lower than 32 μg/mL = D)
MIC (Pseudomonas aeruginosa; P. aeruginosa clinical strain 3 (resistant clinical isolate)): E (MIC's greater than or equal to 32.0 μg/mL = E)
MIC (Pseudomonas aeruginosa; P. aeruginosa clinical strain 4 (resistant clinical isolate)): E (MIC's greater than or equal to 32.0 μg/mL = E)
MIC (Pseudomonas aeruginosa; P. aeruginosa clinical strain 5 (resistant clinical isolate)): E (MIC's greater than or equal to 32.0 μg/mL = E)
MIC (Pseudomonas aeruginosa; P. aeruginosa clinical strain 6 (resistant clinical isolate)): D (MIC's greater than or equal to 16.0 μg/mL and lower than 32 μg/mL = D)
MIC (Pseudomonas aeruginosa; P. aeruginosa clinical strain 7 (resistant clinical isolate)): C (MIC's greater than or equal to 8 μg/mL and lower than 16.0 μg/mL = C)
MIC (Pseudomonas aeruginosa; P. aeruginosa clinical strain 8 (resistant clinical isolate)): E (MIC's greater than or equal to 32.0 μg/mL = E)
MIC (Pseudomonas aeruginosa; P. aeruginosa clinical strain 9 (resistant clinical isolate)): D (MIC's greater than or equal to 16.0 μg/mL and lower than 32 μg/mL = D)
MIC (Pseudomonas aeruginosa; P. aeruginosa clinical strain 10 (resistant clinical isolate)): E (MIC's greater than or equal to 32.0 μg/mL = E)
MIC (Pseudomonas aeruginosa; P. aeruginosa clinical strain 11 (resistant clinical isolate)): B (MIC's of greater than 1.0 μg/mL and lower than 8 μg/mL = B)
MIC (Pseudomonas aeruginosa; P. aeruginosa clinical strain 12 (resistant clinical isolate)): E (MIC's greater than or equal to 32.0 μg/mL = E)
MIC (Pseudomonas aeruginosa; P. aeruginosa clinical strain 13 (resistant clinical isolate)): E (MIC's greater than or equal to 32.0 μg/mL = E)
MIC (Pseudomonas aeruginosa; P. aeruginosa clinical strain 14 (resistant clinical isolate)): E (MIC's greater than or equal to 32.0 μg/mL = E)
MIC (Pseudomonas aeruginosa; P. aeruginosa clinical strain 15 (resistant clinical isolate)): E (MIC's greater than or equal to 32.0 μg/mL = E)
MIC (Pseudomonas aeruginosa; P. aeruginosa clinical strain 16 (resistant clinical isolate)): E (MIC's greater than or equal to 32.0 μg/mL = E)
MIC (Pseudomonas aeruginosa; P. aeruginosa clinical strain 17 (resistant clinical isolate)): C (MIC's greater than or equal to 8 μg/mL and lower than 16.0 μg/mL = C)
MIC (Pseudomonas aeruginosa; P. aeruginosa clinical strain 18 (resistant clinical isolate)): E (MIC's greater than or equal to 32.0 μg/mL = E)
MIC (Pseudomonas aeruginosa; P. aeruginosa clinical strain 19 (resistant clinical isolate)): E (MIC's greater than or equal to 32.0 μg/mL = E)
MIC (Pseudomonas aeruginosa; P. aeruginosa clinical strain 20 (resistant clinical isolate)): E (MIC's greater than or equal to 32.0 μg/mL = E)
MIC (Pseudomonas aeruginosa; P. aeruginosa clinical strain 21 (resistant clinical isolate)): E (MIC's greater than or equal to 32.0 μg/mL = E)
MIC (Pseudomonas aeruginosa; P. aeruginosa clinical strain 22 (resistant clinical isolate)): E (MIC's greater than or equal to 32.0 μg/mL = E)
MIC (Pseudomonas aeruginosa; P. aeruginosa strain 23 (susceptible)): B (MIC's of greater than 1.0 μg/mL and lower than 8 μg/mL = B)
MIC (Pseudomonas aeruginosa; P. aeruginosa strain 24 (susceptible)): B (MIC's of greater than 1.0 μg/mL and lower than 8 μg/mL = B)
MIC (Pseudomonas aeruginosa; P. aeruginosa strain 25 (susceptible)): B (MIC's of greater than 1.0 μg/mL and lower than 8 μg/mL = B)
MIC (Pseudomonas aeruginosa; P. aeruginosa strain 26 (susceptible)): C (MIC's greater than or equal to 8 μg/mL and lower than 16.0 μg/mL = C)
MIC (Pseudomonas aeruginosa; P. aeruginosa strain 27 (susceptible)): B (MIC's of greater than 1.0 μg/mL and lower than 8 μg/mL = B)
